Test results published in ChEMBL document CHEMBL5046238, “Synthesis, biological evaluation, and in silico studies of potential activators of apoptosis and carbonic anhydrase inhibitors on isatin-5-sulfonamide scaffold” (Eur J Med Chem, 2022).
Calls of active or inactive are those of the source. The rule behind the calls is not given here.

How the values were obtained:
K562 = experiment: Antiproliferative activity against human K562 cells assessed as growth inhibition measured after 72 hrs by MTT assay; conditions: K562, 72 h
MCF7 [1] = experiment: Induction of apoptosis in human MCF7 cells assessed as decrease in ERalpha protein expression upto 5 uM measured after 48 hrs by immunoblotting analysis; type: functional, cell-based; conditions: dose microM <=5, time 48.0 hrs
MCF7 [2] = experiment: Antiproliferative activity against human MCF7 cells assessed as growth inhibition measured after 72 hrs by MTT assay; conditions: MCF7, 72 h
MCF7 [3] = experiment: Induction of apoptosis in human MCF7 cells assessed as decrease in Bcl2 expression upto 5 uM measured after 48 hrs by immunoblotting analysis; type: functional, cell-based; conditions: dose microM <=5, time 48.0 hrs
MCF7 [4] = experiment: Induction of apoptosis in human MCF7 cells assessed as […] in BAD protein expression upto 5 uM measured after 48 hrs by immunoblotting analysis; type: functional, cell-based; conditions: dose microM <=5, time 48.0 hrs
MCF7 [5] = experiment: Antiproliferative activity against human MCF7 cells assessed as growth inhibition under hypoxia conditions measured after 72 hrs by MTT assay; conditions: MCF7, 72 h
MDA-MB-231 [6] = experiment: Antiproliferative activity against human MDA-MB-231 cells assessed as growth inhibition under normoxia conditions measured after 72 hrs by MTT assay; conditions: MDA-MB-231, 72 h
HCT-116 [7] = experiment: cells; conditions: Homo sapiens, HCT-116, 72 h
Description: Antiproliferative activity against human HCT-116 assessed as growth inhibition measured after 72 hrs by MTT assay

HCT-116 [8] = experiment: Antiproliferative activity against human HCT-116p53KO subline assessed as growth inhibition measured after 72 hrs by MTT assay; conditions: HCT-116, 72 h
MDA-MB-231 [9] = experiment: Antiproliferative activity against human MDA-MB-231 cells assessed as growth inhibition under hypoxia conditions measured after 72 hrs by MTT assay; conditions: MDA-MB-231, 72 h
[10] = Antiproliferative activity against human K562/4 cells assessed as growth inhibition measured after 72 hrs by MTT assay; conditions: K562/4, 72 h
MCF7 [11] = experiment: Induction of apoptosis in human MCF7 cells assessed as PARP cleavage upto 5 uM measured after 48 hrs by immunoblotting analysis; type: functional, cell-based; conditions: dose microM <=5, time 48.0 hrs
MCF7 [12] = experiment: Induction of apoptosis in human MCF7 cells assessed as NFkappaB activity upto 5 uM measured after 48 hrs by immunoblotting analysis; type: functional, cell-based; conditions: dose microM <=5, time 48.0 hrs
[13] = Cytotoxicity against human MCF-10A assessed as cell viability under hypoxia conditions measured after 72 hrs by MTT assay; type: toxicity, cell-based; conditions: MCF-10A cells
T47D [14] = experiment: Antiproliferative activity against human T47D cells assessed as growth inhibition under normoxia conditions measured after 72 hrs by MTT assay
[15] = Cytotoxicity against human MCF-10A assessed as cell viability under normoxia conditions measured after 72 hrs by MTT assay; type: toxicity, cell-based; conditions: MCF-10A cells
Carbonic anhydrase 9 = Carbonic anhydrase 9 (Homo sapiens, UniProt Q16790); experiment: Inhibition of human CA9 preincubated for 15 mins by phenol red dye based stopped flow CO2 hydration assay
T47D [16] = experiment: Antiproliferative activity against human T47D cells assessed as growth inhibition under hypoxia conditions measured after 72 hrs by MTT assay
Carbonic anhydrase 12 = Carbonic anhydrase 12 (Homo sapiens, UniProt O43570); experiment: Inhibition of human CA12 preincubated for 15 mins by phenol red based stopped flow CO2 hydration assay
Sequence of Carbonic anhydrase 12 (O43570 whole entry): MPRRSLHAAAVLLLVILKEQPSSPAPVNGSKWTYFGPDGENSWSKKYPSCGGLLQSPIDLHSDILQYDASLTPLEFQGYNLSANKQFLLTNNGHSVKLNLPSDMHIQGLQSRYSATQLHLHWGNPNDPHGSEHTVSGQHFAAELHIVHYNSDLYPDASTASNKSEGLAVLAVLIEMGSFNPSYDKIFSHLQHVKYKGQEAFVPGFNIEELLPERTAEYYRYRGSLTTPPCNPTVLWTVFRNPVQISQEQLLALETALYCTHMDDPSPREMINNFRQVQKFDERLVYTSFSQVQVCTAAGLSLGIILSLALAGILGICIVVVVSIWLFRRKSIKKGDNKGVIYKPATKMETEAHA

| Structure (SMILES) | IC50 (K562) [µM] | Activity (MCF7 [1]) | IC50 (MCF7 [2]) [µM] | Activity (MCF7 [3]) | Activity (MCF7 [4]) | IC50 (MCF7 [5]) [µM] | IC50 (MDA-MB-231 [6]) [µM] | IC50 (HCT-116 [7]) [µM] | IC50 (HCT-116 [8]) [µM] | IC50 (MDA-MB-231 [9]) [µM] | IC50 [10] [µM] | Activity (MCF7 [11]) | Activity (MCF7 [12]) | IC50 at 72 h [13] [µM] | IC50 (T47D [14]) [µM] | IC50 at 72 h [15] [µM] | Ki (Carbonic anhydrase 9) [µM] | IC50 (T47D [16]) [µM] | Ki (Carbonic anhydrase 12) [µM] |
| --- | --- | --- | --- | --- | --- | --- | --- | --- | --- | --- | --- | --- | --- | --- | --- | --- | --- | --- | --- |
| O=C1C(=O)N(Cc2ccc(Cl)c(Cl)c2)c2ccccc21 | 20 | inactive | > 50 | Active | Active | > 50 | > 50 | 38 | > 50 | > 50 | 48 | Active | inactive | – | – | – | – | – | – |
| Cc1ccc(CN2C(=O)C(=O)c3cc(S(N)(=O)=O)ccc32)cc1C | 8 | – | 4.4 | – | – | 3.9 | 7.4 | 17 | 15 | 9.4 | 17 | – | – | 6 | 9.4 | 6.2 | 0.276 | 11.1 | – |
| NS(=O)(=O)c1ccc2c(c1)C(=O)C(=O)N2Cc1c(F)cccc1Cl | 14.5 | – | 12.8 | – | – | – | – | – | – | – | 18 | – | – | – | – | – | 0.204 | – | – |
| NS(=O)(=O)c1ccc2c(c1)C(=O)C(=O)N2Cc1ccccc1F | 18 | – | 8.7 | – | – | – | – | – | – | – | 20 | – | – | – | – | – | 1.11 | – | – |
| NS(=O)(=O)c1ccc2c(c1)C(=O)C(=O)N2 | > 50 | – | > 50 | – | – | – | – | – | – | – | > 50 | – | – | – | – | – | 1.46 | – | – |
| NS(=O)(=O)c1ccc2c(c1)C(=O)C(=O)N2Cc1ccc(Cl)cc1Cl | 8.8 | – | 7.8 | – | – | 5.6 | 7 | 17.5 | 20 | 8.4 | 18 | – | – | – | 12 | – | 0.163 | 21.8 | – |
| NS(=O)(=O)c1ccc2c(c1)C(=O)C(=O)N2Cc1c(F)c(F)c(F)c(F)c1F | 8 | – | 10.2 | – | – | – | – | – | – | – | > 50 | – | – | – | – | – | 0.195 | – | – |
| NS(=O)(=O)c1ccc2c(c1)C(=O)C(=O)N2Cc1ccc(Cl)cc1 | 14 | – | 6 | – | – | 4.9 | 22 | 23 | 30 | 19.1 | 50 | – | – | 6.2 | 18.4 | 6.9 | 0.26 | 42.5 | – |
| COc1cccc2c1C(=O)c1c(O)c3c(c(O)c1C2=O)C[C@@](O)(C(=O)CO)C[C@@H]3O[C@H]1C[C@H](N)[C@H](O)[C@H](C)O1 [DOXORUBICIN] | – | – | 0.31 | – | – | 0.37 | 0.33 | 0.3 | 0.8 | 0.25 | – | – | – | 0.051 | 0.16 | 0.047 | – | 0.18 | – |
| NS(=O)(=O)c1ccc2c(c1)CCC2NC(=O)c1c(F)c(F)c(F)c(F)c1F (stereo not drawn) | 12.5 | – | 9.2 | – | – | 13.1 | 26.6 | 18 | 45 | 25.7 | 18 | – | – | > 50 | > 50 | > 50 | – | > 50 | – |
| NS(=O)(=O)c1ccc2c(c1)C(=O)C(=O)N2Cc1ccncc1 | > 50 | – | > 50 | – | – | – | – | – | – | – | > 50 | – | – | – | – | – | 1.68 | – | – |
| NS(=O)(=O)c1ccc2c(c1)C(=O)C(=O)N2Cc1ccccc1 | 18 | – | 20.1 | – | – | – | – | – | – | – | > 50 | – | – | – | – | – | 1.53 | – | – |
| NS(=O)(=O)c1ccc2c(c1)C(=O)C(=O)N2Cc1ccc(F)cc1 | 36 | – | 17.3 | – | – | – | – | – | – | – | > 50 | – | – | – | – | – | 0.24 | – | – |
| NS(=O)(=O)c1ccc2c(c1)C(=O)C(=O)N2Cc1cc(F)cc(F)c1 | 35 | – | 26.5 | – | – | – | – | – | – | – | 37 | – | – | – | – | – | 1.32 | – | – |
| NS(=O)(=O)c1ccc2c(c1)C(=O)C(=O)N2CCc1ccccc1 | 17.2 | – | 31.8 | – | – | – | – | – | – | – | 36 | – | – | – | – | – | 1.81 | – | – |
| NS(=O)(=O)c1ccc2c(c1)C(=O)C(=O)N2Cc1ccc(F)cc1Cl | 11 | – | 13.3 | – | – | – | – | – | – | – | 32 | – | – | – | – | – | 0.292 | – | – |
| NS(=O)(=O)c1ccc2c(c1)C(=O)C(=O)N2Cc1ccc(SC(F)(F)F)cc1 | 4.5 | Dose-Dependent Effect | 2.6 | Active | inactive | 3.2 | 6.9 | 14.5 | 15 | 10.8 | 6.5 | Active | Active | 8.6 | 6.3 | 6.4 | 1.77 | 20.3 | > 10 |
| NS(=O)(=O)c1ccc2c(c1)C(=O)C(=O)N2Cc1ccc(Cl)c(Cl)c1 | 17 | – | 6.1 | – | – | 5.9 | 21.8 | 32 | 31 | 18.5 | > 50 | – | – | 7.3 | 17.1 | 6.6 | 1.46 | > 50 | – |
| NS(=O)(=O)c1ccc2c(c1)C(=O)C(=O)N2Cc1cccc(F)c1 | 15.5 | – | 26.8 | – | – | – | – | – | – | – | 50 | – | – | – | – | – | 2.53 | – | > 10 |
| COc1ccc(CN2C(=O)C(=O)c3cc(S(N)(=O)=O)ccc32)cc1 | 9 | – | 5.1 | – | – | 4.6 | 28.4 | 27 | 30 | 40.8 | 43 | – | – | 3.2 | 20.7 | 4 | 1.03 | > 50 | – |
| NS(=O)(=O)c1ccc2c(c1)C(=O)C(=O)N2Cc1ccc(C(F)(F)F)cc1 | 16 | – | 8.2 | – | – | 5.5 | 27.1 | 30 | 34 | 16.3 | 50 | – | – | – | 22.6 | – | 0.811 | 32.6 | – |
| NS(=O)(=O)c1ccc2c(c1)C(=O)C(=O)N2Cc1ccc([N+](=O)[O-])cc1 | > 50 | – | > 50 | – | – | – | – | – | – | – | > 50 | – | – | – | – | – | 2.04 | – | – |
| NS(=O)(=O)c1ccc2c(c1)C(=O)C(=O)N2Cc1c(F)cccc1F | 17 | – | 22.7 | – | – | – | – | – | – | – | 40 | – | – | – | – | – | 1.03 | – | – |
| NS(=O)(=O)c1ccc2c(c1)C(=O)C(=O)N2Cc1cc(C(F)(F)F)ccc1F | 9 | – | 12 | – | – | – | – | – | – | – | 19.8 | – | – | – | – | – | 0.211 | – | > 10 |
| NS(=O)(=O)c1ccc2c(c1)C(=O)C(=O)N2Cc1cccc(C(F)(F)F)c1 | 9.8 | – | 8.4 | – | – | 5.9 | 14.2 | 17.7 | 30 | 17.6 | 19.8 | – | – | – | 6.3 | – | 0.244 | > 50 | > 10 |
